Values quoted from earlier work, collected in patent publication US8354566B2, “Lubricating oil additive and lubricating oil composition containing same” (Chevron Oronite Company LLC, priority 2010, dated 2013).

System: estrogen-inducible strain of yeast
Details: compared among alkylphenols and with 17β-estradiol

## CC(C)(C)CC(C)(C)c1ccc(O)cc1 [4-tert-octylphenol, 4-(1,1,3,3-Tetramethyl-butyl)-phenol]
  estrogenic activity: highest activity
